Article PMC9960759, “Discovery of New Boswellic Acid Hybrid 1H-1,2,3-Triazoles for Diabetic Management: In Vitro and In Silico Studies” (Pharmaceuticals, 2023)
Read-outs that look alike come from different tables or passages of the source.

Columns and labels:
[1] = target: α-glucosidase (EC 3.2.1.20)
Protocol: The α-glucosidase (EC 3.2.1.20; Saccharomyces cerevisiae) assay was carried out using 50 mM of phosphate buffer (pH = 6.8). The test samples were dissolved in DMSO. The enzyme (1U/2mL) dissolved in phosphate buffer: 20 µL/well of enzyme, 20 µL/well of test samples, and 135 µL/well of phosphate buffer were employed in the 96-well plate. After adding all of these into the 96-well plate, followed by 15 min incubation at 37 °C, 25 µL/well of substrate para-nitro phenyl-α-D-glucopyranoside (0.7 mM) was added to the 96-well plate, and measurements were taken at 400 nm for 30 min using a spectrophotometer (xMarkTM Microplate, Bio-Rad, Hercules, CA, USA). As a control, 7% DMSO was employed. […] For mechanistic studies, a similar procedure was employed, with the addition of four different substrate concentrations: 0.1, 0.2, 0.4, and 0.8 µM. The percentage of inhibition was estimated using the following formula: % Inhibition=100×O.D. of test compound/O.D. of control−100

α-glucosidase = test: Kinetic (mechanistic) studies of α-glucosidase inhibition; assay type: biochemical, Saccharomyces cerevisiae; conditions: for Ki: four substrate concentrations, Lineweaver–Burk / Dixon plots; for type of inhibition: kinetic studies
Protocol: In this type of inhibition, the inhibitor binds with the active site residue of enzyme and, therefore, Vmax remains the same, with an increase in the Km. […] In this type of inhibition, both inhibitors—Vmax and Km—are affected by Vmax decreases and Km increases. […] The test samples were dissolved in DMSO. […] (B) Secondary replot of Lineweaver–Burk plot between the slopes of each Lineweaver–Burk plot vs. different concentrations of compound 6f. (C) Dixon plot of reciprocal of rate of reaction (velocities) vs. different concentrations of compound 6f. […] (B) Secondary replot of Lineweaver–Burk plot between the slopes of each Lineweaver–Burk plot vs. different concentrations of compound 7h. (C) Dixon plot of reciprocal of rate of reaction (velocities) vs. different concentrations of compound 7h.

[2] = read-out: IC50, α-glucosidase-inhibitory activity
[3] = read-out: IC50 ± µM, in vitro α-glucosidase-inhibitory activity, Table 2, substrate p-nitrophenyl-α-D-glucopyranoside 0.7 mM, pH 6.8, 37 °C

| SMILES | IC50 [1, 2] | IC50 [1, 3] | Ki (α-glucosidase) | type of inhibition (α-glucosidase) |
| --- | --- | --- | --- | --- |
| COc1ccccc1-c1cn(COC(=O)[C@@]2(C)[C@H](O)CC[C@@]3(C)[C@H]2CC[C@]2(C)[C@@H]3C(=O)C=C3[C@@H]4[C@@H](C)[C@H](C)CC[C@]4(C)CC[C@]32C)nn1 [7c, (4-(Ortho-methoxyphenyl)-1H-1,2,3-triazol-1-yl) Methyl 3α-hydroxy-11-oxo-urs-12-en-24-oate] | 2.18 µM | 2.18 ± 0.01 µM |  |  |
| CC1CCC2(C)CCC3(C)C(=CC(=O)C4C5(C)CCC(O)C(C)(C(=O)OCn6cc(-c7ccccc7)nn6)C5CCC43C)C2C1C (stereo not drawn) [7a, (4-Phenyl-1H-1,2,3-triazol-1-yl) Methyl 3α-hydroxy-11-oxo-urs-12-en-24-oate] | 2.31 µM | 2.31 ± 0.17 µM |  |  |
| CC(=O)O[C@@H]1CC[C@@]2(C)[C@@H](CC[C@]3(C)[C@@H]2C(=O)C=C2[C@@H]4[C@@H](C)[C@H](C)CC[C@]4(C)CC[C@]23C)[C@@]1(C)C(=O)OCn1cc(-c2ccccc2C(F)(F)F)nn1 [6d] | 2.37 µM | 2.37 ± 0.11 µM |  |  |
| CC(=O)O[C@@H]1CC[C@@]2(C)[C@@H](CC[C@]3(C)[C@@H]2C(=O)C=C2[C@@H]4[C@@H](C)[C@H](C)CC[C@]4(C)CC[C@]23C)[C@@]1(C)C(=O)OCn1cc(-c2ccc(Cl)cc2)nn1 [6i] | 3.06 µM | 3.06 ± 0.22 µM |  |  |
| COc1ccc(-c2cn(COC(=O)C3(C)C(OC(C)=O)CCC4(C)C3CCC3(C)C4C(=O)C=C4C5C(C)C(C)CCC5(C)CCC43C)nn2)cc1 (stereo not drawn) [6e, (4-(Para-methoxyphenyl)-1H-1,2,3-triazol-1-yl) Methyl 3α-acetyloxy-11-oxo-urs-12-en-24-oate] | 2.01 µM | 2.01 ± 0.09 µM |  |  |
| CC(=O)OC1CCC2(C)C(CCC3(C)C2C(=O)C=C2C4C(C)C(C)CCC4(C)CCC23C)C1(C)C(=O)OCn1cc(-c2ccccc2)nn1 (stereo not drawn) [6a, (4-Phenyl-1H-1,2,3-triazol-1-yl) Methyl 3α-acetyloxy-11-oxo-urs-12-en-24-oate] | 2.02 ± 0.031 µM | 2.02 ± 0.03 µM |  |  |
| C#CCOC(=O)C1(C)C(O)CCC2(C)C1CCC1(C)C2C(=O)C=C2C3C(C)C(C)CCC3(C)CCC21C (stereo not drawn) [compound 4, (Prop-2-yne-1-yl) 3α-hydroxy-11-oxo-urs-12-en-24-oate] | 5.32 ± 0.15 µM |  |  |  |
| CC(=O)O[C@@H]1CC[C@@]2(C)[C@@H](CC[C@]3(C)[C@@H]2C(=O)C=C2[C@@H]4[C@@H](C)[C@H](C)CC[C@]4(C)CC[C@]23C)[C@@]1(C)C(=O)OCn1cc(-c2ccccc2C(F)(F)F)nn1 [7d] | 2.62 µM | 2.62 ± 0.06 µM |  |  |
| CC(=O)O[C@@H]1CC[C@@]2(C)[C@@H](CC[C@]3(C)[C@@H]2C(=O)C=C2[C@@H]4[C@@H](C)[C@H](C)CC[C@]4(C)CC[C@]23C)[C@@]1(C)C(=O)OCn1cc(-c2ccc(Cl)cc2)nn1 [7i] | 3.18 µM | 3.18 ± 0.69 µM |  |  |
| CC(=O)O[C@@H]1CC[C@@]2(C)[C@@H](CC[C@]3(C)[C@@H]2C(=O)C=C2[C@@H]4[C@@H](C)[C@H](C)CC[C@]4(C)CC[C@]23C)[C@@]1(C)C(=O)OCn1cc(-c2ccc(C(F)(F)F)cc2)nn1 [6k] | 1.26 µM | 1.26 ± 0.05 µM |  |  |
| Cc1ccccc1-c1cn(COC(=O)C2(C)C(O)CCC3(C)C2CCC2(C)C3C(=O)C=C3C4C(C)C(C)CCC4(C)CCC32C)nn1 (stereo not drawn) [7b, (4-(Ortho-tolyl)-1H-1,2,3-triazol-1-yl) Methyl 3α-hydroxy-11-oxo-urs-12-en-24-oate] | 2.11 µM | 2.11 ± 0.1 µM |  |  |
| C#CCOC(=O)[C@]1(C)C2CC[C@]3(C)C(C(=O)C=C4[C@@H]5[C@@H](C)[C@H](C)CC[C@]5(C)CC[C@]43C)[C@@]2(C)CC[C@H]1OC(C)=O (stereo partly drawn) [compound 3, (Prop-2-yne-1-yl) 3α-acetyloxy-11-oxo-urs-12-en-24-oate] | 4.72 ± 0.52 µM |  |  |  |
| CC(=O)OC1CCC2(C)C(CCC3(C)C2C(=O)C=C2C4C(C)C(C)CCC4(C)CCC23C)C1(C)C(=O)OCn1cc(-c2ccc(Br)cc2)nn1 (stereo not shown) [6h] | 0.69 µM | 0.69 ± 0.04 µM |  |  |
| CC(=O)O[C@@H]1CC[C@@]2(C)[C@@H](CC[C@]3(C)[C@@H]2C(=O)C=C2[C@@H]4[C@@H](C)[C@H](C)CC[C@]4(C)CC[C@]23C)[C@@]1(C)C(=O)OCn1cc(-c2ccc(C(F)(F)F)cc2)nn1 [7k] | 1.39 µM | 1.39 ± 0.11 µM |  |  |
| CC(=O)O[C@@H]1CC[C@@]2(C)[C@@H](CC[C@]3(C)[C@@H]2C(=O)C=C2[C@@H]4[C@@H](C)[C@H](C)CC[C@]4(C)CC[C@]23C)[C@@]1(C)C(=O)OCn1cc(-c2cccc(Br)c2)nn1 [6g] | 0.78 µM | 0.78 ± 0.01 µM | 840 ± 7 nM | competitive |
| CC1CCC2(C)CCC3(C)C(=CC(=O)C4C5(C)CCC(O)C(C)(C(=O)OCn6cc(-c7cccc(C(F)(F)F)c7)nn6)C5CCC43C)C2C1C (stereo not shown) [7f] | 2.52 µM | 2.52 ± 0.12 µM |  |  |
| CC(=O)O[C@@H]1CC[C@@]2(C)[C@@H](CC[C@]3(C)[C@@H]2C(=O)C=C2[C@@H]4[C@@H](C)[C@H](C)CC[C@]4(C)CC[C@]23C)[C@@]1(C)C(=O)OCn1cc(-c2ccc(F)cc2)nn1 [7j] | 2.64 µM | 2.64 ± 0.03 µM |  |  |
| CC(=O)O[C@@H]1CC[C@@]2(C)[C@@H](CC[C@]3(C)[C@@H]2C(=O)C=C2[C@@H]4[C@@H](C)[C@H](C)CC[C@]4(C)CC[C@]23C)[C@@]1(C)C(=O)OCn1cc(-c2ccc(F)cc2)nn1 [6j] | 0.58 µM | 0.58 ± 0.04 µM |  |  |
| CC(=O)O[C@@H]1CC[C@@]2(C)[C@@H](CC[C@]3(C)[C@@H]2C(=O)C=C2[C@@H]4[C@@H](C)[C@H](C)CC[C@]4(C)CC[C@]23C)[C@@]1(C)C(=O)OCn1cc(-c2ccccc2C)nn1 [6b, (4-(O-tolyl)-1H-1,2,3-triazol-1-yl) Methyl 3α-acetyloxy-11-oxo-urs-12-en-24-oate] | 2.25 ± 0.1 µM | 2.25 ± 0.1 µM |  |  |
| COc1ccc(-c2cn(COC(=O)C3(C)C(O)CCC4(C)C3CCC3(C)C4C(=O)C=C4C5C(C)C(C)CCC5(C)CCC43C)nn2)cc1 (stereo not drawn) [7e, (4-(Para-methoxyphenyl)-1H-1,2,3-triazol-1-yl) Methyl 3α-hydroxy-11-oxo-urs-12-en-24-oate] | 2.37 µM | 2.37 ± 0.07 µM |  |  |
| C[C@H]1[C@H](C)CC[C@]2(C)CC[C@]3(C)C(=CC(=O)[C@@H]4[C@@]5(C)CC[C@@H](O)[C@](C)(C(=O)OCn6cc(-c7ccc(Br)cc7)nn6)[C@@H]5CC[C@]43C)[C@H]12 [7h] | 0.43 µM | 0.43 ± 0.05 µM | 1180 ± 1.2 nM | mixed |
| CC(=O)OC1CCC2(C)C(CCC3(C)C2C(=O)C=C2C4C(C)C(C)CCC4(C)CCC23C)C1(C)C(=O)OCn1cc(-c2cccc(C(F)(F)F)c2)nn1 (stereo not shown) [6f] | 0.22 µM | 0.22 ± 0.08 µM | 840 ± 7 nM | competitive |
| COc1ccccc1-c1cn(COC(=O)C2(C)C(OC(C)=O)CCC3(C)C2CCC2(C)C3C(=O)C=C3C4C(C)C(C)CCC4(C)CCC32C)nn1 (stereo not drawn) [6c, (4-(Ortho-methoxyphenyl)-1H-1,2,3-triazol-1-yl) Methyl 3α-acetyloxy-11-oxo-urs-12-en-24-oate] | 1.23 µM | 1.23 ± 0.08 µM |  |  |
| C[C@H]1[C@H](C)CC[C@]2(C)CC[C@]3(C)C(=CC(=O)[C@@H]4[C@@]5(C)CC[C@@H](O)[C@](C)(C(=O)OCn6cc(-c7cccc(Br)c7)nn6)[C@@H]5CC[C@]43C)[C@H]12 [7g] | 1.34 µM | 1.34 ± 0.02 µM |  |  |
